Laboratory results published in PMC3353181, “A gallotannin-rich fraction from Caesalpinia spinosa (Molina) Kuntze displays cytotoxic activity and raises sensitivity to doxorubicin in a leukemia cell line” (BMC Complementary and Alternative Medicine, 2012).

What was measured:
K562 = assay: P2Et adjuvant activity (MTT), K562; type: cell-based, human; conditions: sub-optimal tested concentrations
Description: P2Et fraction adjuvant activity was assessed using K562 and MCF7 cells in combination with the well-known cancer treatment drugs doxorubicin, vincristine, taxol and camptothecin. Cell viability was evaluated by means of the MTT assay. […] Results are expressed as cell viability percentage relative to the control (100 × Treatment OD/Negative control OD).
K562 (A) or MCF7 (B) cells were treated with the P2Et fraction or ethanol (negative control) for 6 h, washed and treated with doxorubicin (Dx), vincristine (Vt), camptothecin (Ct) or taxol (Tx) at the concentrations shown over a 48 h period. Cell cytotoxicity was estimated using the MTT assay. Data represent three independent experiments. *** (p < 0.001).

[1] = tested on: melanoma cells (RPMI-7951); set-up: method as in PMID 1431932; conditions: cited from earlier work
gingival fibroblasts = assay: MTT cytotoxicity assay, gingival fibroblasts; type: cell-based; conditions: Homo sapiens, Fibroblast, normal gingival fibroblasts, concentration ± SE
Description: (§1) The cell lines used as cancer cells were K562, a human erythroleukemia and MCF7, a human breast adenocarcinoma, from the American Type Culture Collection (ATCC); and the cell lines used as normal cells were human peripheral blood mononuclear cells (PBMC) and human fibroblasts obtained from normal healthy donors after informed consent was given. This project was approved by the ethics committee (founded in 2002) of the Science Faculty at a meeting on August 21, 2007. The culture conditions under which the cell lines were maintained have already been reported.
(§2) The cytotoxic effects of the fractions and conventional chemotherapeutic drugs (doxorubicin, etoposide, vincristine and taxol) were evaluated using normal and tumor cells by means of trypan blue and the methylthiazol tetrazolium (MTT) assay, as previously reported. The P2Et fraction was dissolve in ethanol and the corresponding vehicle was used as a negative control.
(§3) Figure 2 Induction of morphological changes and cytotoxicity in K562 cells by C. spinosa fractions without affecting normal human cells. […] Morphological changes were evaluated by direct observation using a light microscope at a magnification of 40X (B: 1. Ethanol; 2. S2Et; 3. P2Et; and 4. Etoposide). […]
(§4) Additionally, the cytotoxic activity of C. spinosa fractions was evaluated using gingival fibroblasts from the oral mucosa or normal human mononuclear cells. […]

PBMC = assay: MTT cytotoxicity assay, PBMC; type: cell-based; conditions: Homo sapiens, normal PBMC, concentration ± SE
Description: as §1, §2, §3, §4

HL-60 cell line = tested on: HL-60 cell line; set-up: method as in PMID 10554885; conditions: cited from earlier work

In the case of `COc1cccc2c1C(=O)c1c(O)c3c(c(O)c1C2=O)C[C@@](O)(C(=O)CO)C[C@@H]3O[C@H]1C[C@H](N)[C@H](O)[C@H](C)O1` [Doxorubicin], the “Effect on cell viability, used separately” value (K562) is reported as “slight effect”.

In the case of `O=C(O[C@H]1[C@H](O)C[C@](O)(C(=O)O)C[C@H]1OC(=O)c1cc(O)c(O)c(O)c1)c1cc(O)c(O)c(O)c1` [4,5-di-O-galloylquinic acid], the “Cytotoxicity against melanoma cells” value [1] is listed as “moderate cytotoxicity”.

Work on `COc1cc([C@@H]2c3cc4c(cc3[C@@H](O[C@@H]3O[C@@H]5CO[C@@H](C)O[C@H]5[C@H](O)[C@H]3O)[C@H]3COC(=O)[C@H]23)OCO4)cc(OC)c1O` [Etoposide] yielded an IC50 (gingival fibroblasts) greater than 200 µg/mL and an IC50 (PBMC) greater than 200 µg/mL.

In the case of `O=C(OC[C@H]1O[C@@H](OC(=O)c2cc(O)c(O)c(O)c2)[C@H](OC(=O)c2cc(O)c(O)c(O)c2)[C@@H](OC(=O)c2cc(O)c(O)c(O)c2)[C@@H]1OC(=O)c1cc(O)c(O)c(O)c1)c1cc(O)c(O)c(O)c1` [PGG, 1,2,3,4,6-penta-O-galloyl-β-D-glucose], the Induction of apoptosis (HL-60 cell line) is listed as “able to induce caspase-mediated apoptosis”.
